Read-outs that look alike come from different tables or passages of the source.
Key:
[1] = tested on: MIN-6 mouse pancreatic β cells; assay: Insulin release in MIN6 cells; format: cell-based; details: MIN-6 cells, 16.7 mM glucose, 1 h
A2BAR [2] = target: T1, A2BAR (Homo sapiens, UniProt P29275); assay: ERK1/2 phosphorylation in T24 cells
T1 sequence (P29275 1-332): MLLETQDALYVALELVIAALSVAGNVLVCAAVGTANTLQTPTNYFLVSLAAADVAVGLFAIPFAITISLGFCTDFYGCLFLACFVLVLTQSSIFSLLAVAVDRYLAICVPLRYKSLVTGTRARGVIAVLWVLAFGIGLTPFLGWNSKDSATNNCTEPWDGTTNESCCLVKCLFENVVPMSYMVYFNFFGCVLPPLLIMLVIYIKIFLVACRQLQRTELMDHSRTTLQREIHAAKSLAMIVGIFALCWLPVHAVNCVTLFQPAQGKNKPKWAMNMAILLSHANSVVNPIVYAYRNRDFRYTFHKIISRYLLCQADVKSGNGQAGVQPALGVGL

A2BAR [3] = target: T1, A2BAR; assay: Intracellular calcium mobilization in T24 cells; details: T-24, read-out: Max effect Calcium (% of effect of NECA)
mouse A2BAR [4] = target: T2, mouse A2BAR (Mus musculus, UniProt Q60614); assay: β-Arrestin2 translocation in PathHunter CHO cells
T2 sequence (Q60614 1-332): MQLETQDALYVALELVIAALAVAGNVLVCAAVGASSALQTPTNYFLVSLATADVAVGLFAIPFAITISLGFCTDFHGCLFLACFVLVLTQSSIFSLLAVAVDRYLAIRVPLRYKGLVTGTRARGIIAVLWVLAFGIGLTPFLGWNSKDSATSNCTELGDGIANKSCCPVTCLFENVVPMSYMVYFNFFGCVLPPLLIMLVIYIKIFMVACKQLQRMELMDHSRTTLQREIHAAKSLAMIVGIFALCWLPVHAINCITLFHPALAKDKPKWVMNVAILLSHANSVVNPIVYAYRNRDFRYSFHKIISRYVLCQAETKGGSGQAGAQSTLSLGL

mouse A2BAR [5] = assay: β-Arrestin2 translocation in PathHunter CHO cells
A2BAR [6] = target: T1, A2BAR; assay: ERK1/2 phosphorylation in HEK293 cells
A2BAR [7] = target: T1, A2BAR; assay: cAMP accumulation in HEK293 cells overexpressing the A2BAR
A2BAR [8] = target: T1, A2BAR; assay: ERK1/2 phosphorylation in HEK293 cells overexpressing the A2BAR
A2BAR [9] = target: T1, A2BAR; assay: cAMP accumulation in T24 cells endogenously expressing the A2BAR
A2BAR [10] = assay: cAMP accumulation in COS-7 cells endogenously expressing the A2BAR
A2BAR [11] = target: T1, A2BAR; assay: cAMP accumulation in HEK293 cells endogenously expressing the A2BAR
A2BAR [12] = target: T1, A2BAR; assay: Intracellular calcium mobilization in HEK293 cells; details: HEK293, read-out: Max effect Calcium (% of effect of NECA)
A2BAR [13] = target: T1, A2BAR; assay: Intracellular calcium mobilization in HEK293 cells overexpressing the A2BAR
A2BAR [14] = target: T1, A2BAR; assay: cAMP accumulation in WM266 melanoma cells endogenously expressing the A2BAR; details: WM266, read-out: Max effect cAMP accumulation
A2BAR [15] = target: T1, A2BAR; assay: cAMP accumulation in 1321N1 astrocytoma cells endogenously expressing the A2BAR
A2BAR [16] = target: T1, A2BAR
[17] = HEK293, read-out: Max effect ERK1/2 (% of effect of NECA)
[18] = HEK293, read-out: Max effect cAMP (% of effect of NECA)

**Q.** With N#Cc1c(N)nc(SCC(N)=O)c(C#N)c1-c1ccc(OCC2CC2)cc1 [BAY, 2-[[6-amino-3,5-dicyano-4-[4-(cyclopropylmethoxy)phenyl]-2-pyridinyl]thio]acetamide] as the compound, how does the “Glucose stimulated insulin secretion” value [1] read?
**A.** The value was “induced insulin secretion”.

**Q.** And the “ERK1/2 stimulation” value (A2BAR [2]; T24 cells)?
**A.** Its value is “did not produce any stimulation”.

**Q.** What about the Emax (A2BAR [2]; T-24, read-out: Max effect ERK1/2 (% of effect of NECA)) of the same compound?
**A.** Its Emax is -9.4 ± 3.8%.

**Q.** What about the Emax (A2BAR [3]) of the same compound?
**A.** The Emax was 2.3 ± 1.5%.

**Q.** And the EC50 (mouse A2BAR [4])?
**A.** The EC50 was 5620 ± 1240 nM.

**Q.** And the Kd (mouse A2BAR [4])?
**A.** The Kd was 12300 nM.

**Q.** What about the Emax (mouse A2BAR [4]; CHO, read-out: Max effect β-arrestin (% of effect of NECA)) of the same compound?
**A.** The Emax was 26.6 ± 3%.

**Q.** What about the “log (τ/KA)” value (mouse A2BAR [4]; β-Arrestin pathway) of the same compound?
**A.** Its value is 4.30 ± 0.17.

**Q.** And the τ (mouse A2BAR [4]; β-Arrestin pathway, operational model, CHO mouse A2BAR)?
**A.** The τ was 0.25.

**Q.** What about the “Δlog (τ/Ka)” value (mouse A2BAR [4]; β-Arrestin pathway, relative to NECA) of the same compound?
**A.** The value was -1.43 ± 0.09.

**Q.** And the “ΔΔlog (τ/KA)” value (mouse A2BAR [5]; β-Arrestin versus cAMP reference pathway)?
**A.** The value was 2.16.

**Q.** What about the Bias (mouse A2BAR [5]; β-Arrestin versus cAMP, bias ≫1 disfavors the pathway) of the same compound?
**A.** Its Bias is 145.

**Q.** What about the EC50 (A2BAR [6]) of the same compound?
**A.** Its EC50 is 68.8 ± 4.7 nM.

**Q.** And the Emax (A2BAR [6]; [17])?
**A.** The Emax was 38.3 ± 5.9%.

**Q.** What about the EC50 (A2BAR [7]) of the same compound?
**A.** Its EC50 is 6.14 ± 1.61 nM.

**Q.** And the Kd (A2BAR [7])?
**A.** The Kd was 705 nM.

**Q.** And the Emax (A2BAR [7]; [18])?
**A.** Its Emax is 102 ± 1%.

**Q.** And the “log (τ/KA)” value (A2BAR [7]; cAMP pathway)?
**A.** The value was 8.15 ± 0.38.

**Q.** And the τ (A2BAR [7]; cAMP pathway, operational model, A2BAR-overexpressing HEK293)?
**A.** Its τ is 100.

**Q.** What about the “Δlog (τ/Ka)” value (A2BAR [7]; cAMP pathway, relative to NECA) of the same compound?
**A.** Its value is 0.73 ± 0.04.

**Q.** And the EC50 (A2BAR [8])?
**A.** Its EC50 is 28.9 ± 4.1 nM.

**Q.** And the Kd (A2BAR [8])?
**A.** The Kd was 59.5 nM.

**Q.** And the “log (τ/KA)” value (A2BAR [8]; ERK1/2 pathway)?
**A.** Its value is 7.02 ± 0.44.

**Q.** What about the τ (A2BAR [8]; ERK1/2 pathway, operational model, A2BAR-overexpressing HEK293) of the same compound?
**A.** Its τ is 0.62.

**Q.** And the “Δlog (τ/Ka)” value (A2BAR [8]; ERK1/2 pathway, relative to NECA)?
**A.** Its value is 1.39 ± 0.17.

**Q.** And the “ΔΔlog (τ/KA)” value (A2BAR [8]; ERK1/2 versus cAMP reference pathway)?
**A.** The value was -0.66.

**Q.** What about the Bias (A2BAR [8]; ERK1/2 versus cAMP, bias ≫1 disfavors the pathway) of the same compound?
**A.** The Bias was 0.22.

**Q.** What about the Emax (A2BAR [8]; [17]) of the same compound?
**A.** Its Emax is 38.4 ± 3.3%.

**Q.** And the EC50 (A2BAR [9]; EC50 cAMP accumulation, T24 cells, 5 nM A2BAR siRNA)?
**A.** Its EC50 is 102 ± 17 nM.

**Q.** And the EC50 (A2BAR [9]; EC50 cAMP accumulation, T24 cells, 50 nM A2BAR siRNA)?
**A.** The EC50 was 127 ± 31 nM.

**Q.** And the EC50 (A2BAR [9]; EC50 cAMP accumulation, T24 cells, 500 nM A2BAR siRNA)?
**A.** Its EC50 is 93 ± 19 nM.

**Q.** What about the EC50 (A2BAR [9]; EC50 cAMP accumulation, T24 cells, absence of A2BAR siRNA) of the same compound?
**A.** Its EC50 is 98 ± 22 nM.

**Q.** What about the EC50 (A2BAR [9]; EC50 cAMP, T24 cells) of the same compound?
**A.** The EC50 was 43 ± 17.7 nM.

**Q.** What about the “maximum agonist effect, cAMP accumulation (NECA as 100%)” value (from here on “maximum agonist effect … (NECA as 100%)”) (A2BAR [9]; T24 cells, 5 nM A2BAR siRNA) of the same compound?
**A.** Its value is 54 ± 4%.

**Q.** And the “maximum agonist effect … (NECA as 100%)” value (A2BAR [9]; T24 cells, 50 nM A2BAR siRNA)?
**A.** The value was 48 ± 6%.

**Q.** What about the “maximum agonist effect … (NECA as 100%)” value (A2BAR [9]; T24 cells, 500 nM A2BAR siRNA) of the same compound?
**A.** Its value is 36 ± 3%.

**Q.** What about the “maximum agonist effect … (NECA as 100%)” value (A2BAR [9]; T24 cells, absence of A2BAR siRNA) of the same compound?
**A.** Its value is 68 ± 7%.

**Q.** And the “τ value (operational model), cAMP accumulation” value (A2BAR [9]; T24 cells, siRNA silencing / overexpression methods)?
**A.** Its value is 1.19.

**Q.** And the Emax (A2BAR [9]; T-24, read-out: Max effect cAMP (% of effect of NECA))?
**A.** The Emax was 62.9 ± 9.6%.

**Q.** And the “Max effect cAMP accumulation” value (A2BAR [10]; NECA = 100)?
**A.** The value was 98.3±3.7%.

**Q.** What about the EC50 (A2BAR [10]; read-out: EC50 cAMP accumulation) of the same compound?
**A.** The EC50 was 7.9 ± 1.2 nM.

**Q.** What about the EC50 (A2BAR [11]) of the same compound?
**A.** The EC50 was 296 ± 146 nM.

**Q.** What about the Emax (A2BAR [11]; [18]) of the same compound?
**A.** Its Emax is 73 ± 12.1%.

**Q.** What about the “τ value (operational model), cAMP accumulation” value (A2BAR [11]; HEK293 cells, siRNA silencing / overexpression methods) of the same compound?
**A.** Its value is 1.54.

**Q.** What about the Emax (A2BAR [12]) of the same compound?
**A.** The Emax was -2.4 ± 1.7%.

**Q.** What about the EC50 (A2BAR [13]) of the same compound?
**A.** The EC50 was 1100 ± 390 nM.

**Q.** And the Kd (A2BAR [13])?
**A.** Its Kd is 1670 nM.

**Q.** What about the “log (τ/KA)” value (A2BAR [13]; Calcium pathway) of the same compound?
**A.** Its value is 4.66 ± 0.35.

**Q.** And the τ (A2BAR [13]; Calcium pathway, operational model, A2BAR-overexpressing HEK293)?
**A.** The τ was 0.08.

**Q.** And the “ΔΔlog (τ/KA)” value (A2BAR [13]; Calcium versus cAMP reference pathway)?
**A.** Its value is 4.22.

**Q.** And the Bias (A2BAR [13]; Calcium versus cAMP, bias ≫1 disfavors the pathway)?
**A.** Its Bias is 16600.

**Q.** And the Emax (A2BAR [14])?
**A.** Its Emax is 9.8 ± 1.7%.

**Q.** What about the EC50 (A2BAR [15]) of the same compound?
**A.** The EC50 was 113 ± 17 nM.

**Q.** What about the Emax (A2BAR [15]; 1321-N1, read-out: Max effect cAMP accumulation) of the same compound?
**A.** Its Emax is 52.6 ± 3.1%.

**Q.** And the EC50 (A2BAR [16])?
**A.** Its EC50 is 45.3 ± 5.9 nM.

**Q.** What about the Emax (A2BAR [16]; PC-3, read-out: Max effect cAMP accumulation) of the same compound?
**A.** Its Emax is 72.6 ± 5.1%.

From publication PMC4128710 (Biochemical pharmacology, 2014)
